Experimental data as given in PubChem BioAssay AID1259407 (Chemical Carcinogenesis Research Information System (CCRIS), 2018).
Activity calls are given as the source filed them. No rule for the calls is given here.

Test system: CCRIS mutagenicity, Ames/micronucleus/aberration tests
Test: CCRIS mutagenicity studies

Measured: mutagenic call

C=C1CC[C@H]2C[C@@H]1C2(C)C
inactive: Test System: AMES SALMONELLA TYPHIMURIUM, Strain/Indicator: TA98, Metabolic Activation: HAMSTER, LIVER, S-9, AROCLOR 1254 (2.5-20%), Method: PREINCUBATION inactive; negative | Test System: AMES SALMONELLA TYPHIMURIUM, Strain/Indicator: TA98, Metabolic Activation: HAMSTER, LIVER, S-9, AROCLOR 1254, Method: STANDARD PLATE inactive; negative | Test System: AMES SALMONELLA TYPHIMURIUM, Strain/Indicator: TA98, Metabolic Activation: NONE, Method: STANDARD PLATE inactive; negative | Test System: AMES SALMONELLA TYPHIMURIUM, Strain/Indicator: TA98, Metabolic Activation: RAT, LIVER, S-9, AROCLOR 1254, Method: STANDARD PLATE inactive; negative | Test System: AMES SALMONELLA TYPHIMURIUM, Strain/Indicator: TA100, Metabolic Activation: HAMSTER, LIVER, S-9, AROCLOR 1254 (2.5-20%), Method: PREINCUBATION inactive; negative | Test System: AMES SALMONELLA TYPHIMURIUM, Strain/Indicator: TA100, Metabolic Activation: HAMSTER, LIVER, S-9, AROCLOR 1254, Method: STANDARD PLATE inactive; negative | Test System: AMES SALMONELLA TYPHIMURIUM, Strain/Indicator: TA100, Metabolic Activation: NONE, Method: STANDARD PLATE inactive; negative | Test System: AMES SALMONELLA TYPHIMURIUM, Strain/Indicator: TA100, Metabolic Activation: RAT, LIVER, S-9, AROCLOR 1254, Method: STANDARD PLATE inactive; negative | Test System: AMES SALMONELLA TYPHIMURIUM, Strain/Indicator: TA102, Metabolic Activation: HAMSTER, LIVER, S-9, AROCLOR 1254, Method: PREINCUBATION inactive; negative | Test System: AMES SALMONELLA TYPHIMURIUM, Strain/Indicator: TA102, Metabolic Activation: NONE, Method: PREINCUBATION inactive; negative | Test System: AMES SALMONELLA TYPHIMURIUM, Strain/Indicator: TA102, Metabolic Activation: RAT, LIVER, S-9, AROCLOR 1254, Method: PREINCUBATION inactive; negative | Test System: AMES SALMONELLA TYPHIMURIUM, Strain/Indicator: TA1535, Metabolic Activation: HAMSTER, LIVER, S-9, AROCLOR 1254, Method: STANDARD PLATE inactive; negative | Test System: AMES SALMONELLA TYPHIMURIUM, Strain/Indicator: TA1535, Metabolic Activation: NONE, Method: STANDARD PLATE inactive; negative | Test System: AMES SALMONELLA TYPHIMURIUM, Strain/Indicator: TA1535, Metabolic Activation: RAT, LIVER, S-9, AROCLOR 1254, Method: STANDARD PLATE inactive; negative | Test System: AMES SALMONELLA TYPHIMURIUM, Strain/Indicator: TA1537, Metabolic Activation: HAMSTER, LIVER, S-9, AROCLOR 1254, Method: STANDARD PLATE inactive; negative | Test System: AMES SALMONELLA TYPHIMURIUM, Strain/Indicator: TA1537, Metabolic Activation: NONE, Method: STANDARD PLATE inactive; negative | Test System: AMES SALMONELLA TYPHIMURIUM, Strain/Indicator: TA1537, Metabolic Activation: RAT, LIVER, S-9, AROCLOR 1254, Method: STANDARD PLATE inactive; negative | Test System: AMES SALMONELLA TYPHIMURIUM, Strain/Indicator: TA1538, Metabolic Activation: HAMSTER, LIVER, S-9, AROCLOR 1254, Method: STANDARD PLATE inactive; negative | Test System: AMES SALMONELLA TYPHIMURIUM, Strain/Indicator: TA1538, Metabolic Activation: NONE, Method: STANDARD PLATE inactive; negative | Test System: AMES SALMONELLA TYPHIMURIUM, Strain/Indicator: TA1538, Metabolic Activation: RAT, LIVER, S-9, AROCLOR 1254, Method: STANDARD PLATE inactive; negative | Test System: Mouse lymphoma, Strain/Indicator: L5178Y (tk+/tk-), Metabolic Activation: None, Method: Suspension/plate inactive; negative | Test System: Mouse lymphoma, Strain/Indicator: L5178Y (tk+/tk-), Metabolic Activation: Rat, Liver, S-9, Aroclor 1254, Method: Suspension/plate inactive; inconcludive (previous evaluation negative)

COc1cccc(C(=O)CBr)c1
inactive: Test System: AMES SALMONELLA TYPHIMURIUM, Strain/Indicator: TA98, Metabolic Activation: NONE, Method: PREINCUBATION inactive; negative | Test System: AMES SALMONELLA TYPHIMURIUM, Strain/Indicator: TA98, Metabolic Activation: RAT, LIVER, S-9, PCB, Method: PREINCUBATION inactive; negative | Test System: AMES SALMONELLA TYPHIMURIUM, Strain/Indicator: TA100, Metabolic Activation: NONE, Method: PREINCUBATION inactive; negative | Test System: AMES SALMONELLA TYPHIMURIUM, Strain/Indicator: TA100, Metabolic Activation: RAT, LIVER, S-9, PCB, Method: PREINCUBATION inactive; negative | Test System: E. COLI, Strain/Indicator: WP2 UVRA, Metabolic Activation: NONE, Method: PREINCUBATION inactive; negative
